The results in this text go back to patent publication US20070135457A1, “Pyrido[2,3-d]pyrimidine-2,4-diamines as pde2 inhibitors” (Pfizer Inc., priority 2003, published 2007).

Where two headings read alike, the source gives them in different places. Where only a bound is given, the exact number is not on record here.

In data set [1] the target is T1, PDE 2 enzyme isolated from human platelets (Homo sapiens, UniProt O00408).
T1 construct: PDE 2 enzyme was isolated from human platelets; from tissue; host or cells: human platelets (pooled blood from multiple donors); HiTrap Q anion-exchange fraction eluting at about 325 mM NaCl
T1 sequence (O00408 whole entry): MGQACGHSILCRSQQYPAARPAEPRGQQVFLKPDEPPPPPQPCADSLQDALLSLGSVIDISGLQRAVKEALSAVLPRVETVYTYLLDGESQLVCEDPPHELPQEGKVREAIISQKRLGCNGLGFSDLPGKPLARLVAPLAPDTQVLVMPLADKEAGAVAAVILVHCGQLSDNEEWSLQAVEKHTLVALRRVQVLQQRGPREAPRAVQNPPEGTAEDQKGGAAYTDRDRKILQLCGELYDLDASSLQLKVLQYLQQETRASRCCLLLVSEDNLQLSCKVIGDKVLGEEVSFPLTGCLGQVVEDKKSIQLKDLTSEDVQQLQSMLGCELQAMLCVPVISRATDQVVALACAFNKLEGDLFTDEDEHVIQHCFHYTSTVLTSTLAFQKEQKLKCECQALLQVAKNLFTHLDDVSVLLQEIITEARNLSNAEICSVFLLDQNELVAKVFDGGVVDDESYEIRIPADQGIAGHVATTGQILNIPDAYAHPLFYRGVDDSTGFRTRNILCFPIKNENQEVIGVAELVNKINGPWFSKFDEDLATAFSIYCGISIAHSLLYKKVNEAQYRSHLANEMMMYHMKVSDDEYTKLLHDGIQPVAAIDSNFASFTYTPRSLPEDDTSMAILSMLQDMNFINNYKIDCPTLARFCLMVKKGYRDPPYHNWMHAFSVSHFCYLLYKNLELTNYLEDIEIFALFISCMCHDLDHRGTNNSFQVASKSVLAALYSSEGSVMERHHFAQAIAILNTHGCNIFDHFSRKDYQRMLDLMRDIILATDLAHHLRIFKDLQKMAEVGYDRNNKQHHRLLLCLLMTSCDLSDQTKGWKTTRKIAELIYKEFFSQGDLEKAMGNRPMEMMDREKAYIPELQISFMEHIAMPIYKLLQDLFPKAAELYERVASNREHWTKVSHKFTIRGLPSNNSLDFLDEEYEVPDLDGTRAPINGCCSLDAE
The data set can be described thus: PDE 2 enzyme scintillation proximity assay (SPA). It counts as biochemical. The protocol: PDE 2 enzyme was isolated from human platelets with approximately 1.4 L of blood from multiple donors used to make the platelet pellets. Platelets were resuspended in approximately 75 mL of lysis buffer [20 mM Tris pH 7.2, 5 mM MgCl2, 250 mM Sucrose, 1 mM DTT, 1 μL/2 mL Sigma Protease inhibitor #8340; Sigma-Aldrich; St. Louis, Mo.] and lysed by sonication at 4° C., with 3 rounds of 1 min bursts then spun at 4° C. overnight at 100,000×g. Cleared lysates were loaded to AKTA Explorer FPLC (Amersham Biosciences; Piscataway, N.J.) in a series of three chromatographic separations, with an average load volume of 25 mL. A 5 mL HiTrap Q anion exchange column (Amersham Biosciences) was used. […] Two major cGMP activity fractions (PDE 5 and PDE 2) were isolated and pooled separately. The PDE 2-pooled fraction total was approximately 40 mL which was dispensed in cryovials of 200 μl/vial and placed in storage at −80° C.
The inhibitory activity of the compounds of formula (I) on recombinant or isolated PDE 2, and other PDE's, was determined using the […] scintillation proximity assay (SPA) kits from Amersham International (Little Chalfont, England). The SPA assays were performed using 96 well plates. The PDE SPA yttrium silicate beads (Amersham Biosciences) bind preferentially to the linear nucleotide, GMP, compared to the cyclic nucleotide, cGMP. ^3H-cGMP was added to the reaction and when the product, ^3H-GMP, was in […] to the beads, the scintillant within the bead was excited, which was detected using a Packard scintillation counter (Perkin-Elmer Life Sciences; Boston, Mass.). The enzyme concentration used was in the linear range and the Km of the enzyme was determined (15 uM). The final substrate concentration was <1/3 of Km (1 μM) so that IC50 values would approximate the Ki values. The assay was validated using literature compounds as controls before testing compounds. Then, PDE catalytic activity measurements obtained in the presence of the test compound, and those obtained in the absence of the test compound, were compared and the lC50 value is determined. […]

Setting [2] is: SPA, 1 μM substrate, read-out: PDE 2 Inhibition.

Turning to `CCCCCCC(C(C)O)n1cnc2c(N)ncnc21` (stereo not drawn) [EHNA, erythro-9-(2-hydroxy-3-nonyl)adenine, reference compound], in data set [1] (PDE 2 isolated from human platelets, read-out: IC50), the IC50 stood at 1700 nM.

`COc1cc(CNc2nc(NCCc3ccccn3)nc3ncccc23)cc(OC)c1` [Example 1, N^4-(3,5-Dimethoxy-benzyl)-N^2-(2-pyridin-2-yl-ethyl)-pyrido[2,3-d]pyrimidine-2,4-diamine] came in with a melting point of 157 to 158 °C. In data set [1] (setting [2]), the IC50 was in the range of 50 to 250 nM.

Molecule `COc1cc(CNc2nc(NCCc3cccnc3)nc3ncccc23)cc(OC)c1` [Example 2, N^4-(3,5-Dimethoxy-benzyl)-N^2-(2-pyridin-3-yl-ethyl)-pyrido[2,3-d]pyrimidine-2,4-diamine] yielded a melting point of 185 to 186 °C. For the same molecule, the IC50 in data set [1] (setting [2]) was in the range of 50 to 250 nM.

As to `COc1cc(CNc2nc(NCc3cccnc3)nc3ncccc23)cc(OC)c1` [Example 4, N^4-(3,5-Dimethoxy-benzyl)-N^2-2-pyridin-3-ylmethyl-pyrido[2,3-d]pyrimidine-2,4-diamine], the melting point fell in the range of 222 to 223 °C. Further, in data set [1] (setting [2]), the IC50 was 250 to 1000 nM.

As for `COc1cc(CNc2nc(NCc3cc(OC)cc(OC)c3)c3cccnc3n2)cc(OC)c1` [Example 5, N^2-N^4-Bis-(3,5-dimethoxy-benzyl)-pyrido[2,3-d]pyrimidine-2,4-diamine], the melting point was 159 to 160 °C. Moreover, the IC50 in data set [1] (setting [2]) is below 50 nM.

For the molecule `COc1ccc(CCNc2nc(NCc3cc(OC)cc(OC)c3)c3cccnc3n2)cc1` [Example 6, N^4-(3,5-Dimethoxy-benzyl)-N^2-[2-(4-methoxy-phenyl)-ethyl]-pyrido[2,3-d]pyrimidine-2,4-diamine], the melting point is 88 to 89 °C. The IC50 in data set [1] (setting [2]) lay within 250 to 1000 nM.

As to `COc1cc(CNc2nc(NCCCc3ccccc3)nc3ncccc23)cc(OC)c1` [Example 7, N^4-(3,5-Dimethoxy-benzyl)-N^2-(3-phenyl-propyl)-pyrido[2,3-d]pyrimidine-2,4-diamine], in data set [1] (setting [2]), the IC50 lay within 50 to 250 nM.

Regarding `COc1cc(CNc2nc(NCCc3ccc(Cl)cc3)nc3ncccc23)cc(OC)c1` [Example 8, N^2-[2-(4-Chloro-phenyl)-ethyl]-N^4-(3,5-dimethoxy-benzyl)-pyrido[2,3-d]pyrimidine-2,4-diamine], the melting point was 85 to 90 °C. Besides, the IC50 in data set [1] (setting [2]) lay in the range of 250 to 1000 nM.

Turning to `COc1cc(CNc2nc(NCc3ccccc3)nc3ncccc23)cc(OC)c1` [Example 9, N^2-Benzyl-N^4-(3,5-dimethoxy-benzyl)-pyrido[2,3-d]pyrimidine-2,4-diamine], the melting point lay within 84 to 85 °C. Moreover, the IC50 in data set [1] (setting [2]) lay in the range of 250 to 1000 nM.

The molecule `COc1cc(CNc2nc(NCCc3cccs3)nc3ncccc23)cc(OC)c1` [Example 10, N^4-(3,5-Dimethoxy-benzyl)-N^2-(2-thiophen-2-yl-ethyl)-pyrido[2,3-d]pyrimidine-2,4-diamine] came in with a melting point of 120 to 121 °C. For the same molecule, the IC50 in data set [1] (setting [2]) was below 50 nM.

The molecule `COc1cc(CNc2nc(NCc3ccc(C(C)(C)O)cc3)nc3ncccc23)cc(OC)c1` [Example 11, 2-(4-{[4-(3,5-Dimethoxy-benzylamino)-pyrido[2,3-d]pyrmidin-2-ylamino]-methyl}-phenyl)-propan-2-ol] registered a melting point of 105 to 109 °C. In addition, the IC50 in data set [1] (setting [2]) is 250 to 1000 nM.

The molecule `COc1cc(CNc2nc(NCCc3ccccc3)nc3ncccc23)cc(OC)c1` [Example 12, N^4-(3,5-Dimethoxy-benzyl)-N^2-2-phenethyl-pyrido[2,3-d]pyrimidine-2,4-diamine] returned a melting point of 112 to 114 °C. Also, the IC50 in data set [1] (setting [2]) is 50 to 250 nM.

In turn, `COc1cc(CCNc2nc(NCc3cc(OC)cc(OC)c3)c3cccnc3n2)cc(OC)c1` [Example 13, N^4-(3,5-Dimethoxy-benzyl)-N^2-[2-(3,5-dimethoxy-phenyl)-ethyl]-pyrido[2,3-d]pyrimidine-2,4-diamine] gave a melting point of 95 to 100 °C. The IC50 in data set [1] (setting [2]) fell in the range of 50 to 250 nM.

Take `COc1ccc(CNc2nc(NCCc3cccc(F)c3)nc3ncccc23)cc1OC` [Example 14, N^4-(3,4-Dimethoxy-benzyl)-N^2-[2-(3-fluoro-phenyl)-ethyl]-pyrido[2,3-d]pyrimidine-2,4-diamine]: the melting point is 227 to 228 °C. The IC50 in data set [1] (setting [2]) lay in the range of 50 to 250 nM.

Consider `COc1ccc(CNc2nc(NCCc3ccccc3F)nc3ncccc23)cc1OC` [Example 15, N^4-(3,4-Dimethoxy-benzyl)-N^2-[2-(2-fluoro-phenyl)-ethyl]-pyrido[2,3-d]pyrimidine-2,4-diamine], for which the melting point lay within 220 to 222 °C. Besides, the IC50 in data set [1] (setting [2]) fell in the range of 50 to 250 nM.

In turn, `COc1ccc(CNc2nc(NCCc3ccc(F)cc3)nc3ncccc23)cc1OC` [Example 16, N^4-(3,4-Dimethoxy-benzyl)-N^2-[2-(4-fluoro-phenyl)-ethyl]-pyrido[2,3-d]pyrimidine-2,4-diamine] gave a melting point of 225 to 226 °C. Also, in data set [1] (setting [2]), the IC50 is below 50 nM.

Take `COc1ccc(CNc2nc(NCCc3ccccc3)nc3ncccc23)cc1OC` [Example 17, N^4-(3,4-Dimethoxy-benzyl)-N^2-phenethyl-pyrido[2,3-d]pyrimidine-2,4-diamine]: the melting point is 217 to 218 °C. In addition, in data set [1] (setting [2]), the IC50 was below 50 nM.

`COc1ccc(CNc2nc(NCCCCc3ccccc3)nc3ncccc23)cc1OC` [Example 18, N^4-(3,4-Dimethoxy-benzyl)-N^2-(4-phenyl-butyl)-pyrido[2,3-d]pyrimidine-2,4-diamine] came in with a melting point of 194 to 195 °C. In addition, in data set [1] (setting [2]), the IC50 was 50 to 250 nM.

Consider `COc1ccc(CNc2nc(NCCOc3ccccc3)nc3ncccc23)cc1OC` [Example 19, N^4-(3,4-Dimethoxy-benzyl)-N^2-(2-phenoxy-ethyl)-pyrido[2,3-d]pyrimidine-2,4-diamine], for which the melting point lay in the range of 227 to 228 °C. For the same molecule, the IC50 in data set [1] (setting [2]) is 50 to 250 nM.

In the case of `COc1ccc(CNc2nc(NCc3ccccc3C(F)(F)F)nc3ncccc23)cc1OC` [Example 20, N^4-(3,4-Dimethoxy-benzyl)-N^2-(2-trifluoromethyl-benzyl)-pyrido[2,3-d]pyrimidine-2,4-diamine], the melting point was 227 to 228 °C. In addition, in data set [1] (setting [2]), the IC50 lay in the range of 250 to 1000 nM.

On to `COc1ccc(CNc2nc(NCCCc3ccc(C(C)(C)O)cc3)nc3ncccc23)cc1OC` [Example 21, 2-(4-{3-[4-(3,4-Dimethoxy-benzylamino)-pyrido[2,3-d]pyrimidin-2-ylamino]-propyl}-phenyl)-propan-2-ol], for which the melting point was in the range of 198 to 199 °C. Besides, the IC50 in data set [1] (setting [2]) lay in the range of 250 to 1000 nM.

For `COc1cc(CNc2nc(NCCCc3ccc(C(C)(C)O)cc3)nc3ncccc23)cc(OC)c1` [Example 22, 2-(4-{3-[4-(3,5-Dimethoxy-benzylamino)-pyrido[2,3-d]pyrimidin-2-ylamino]-propyl}-phenyl)-propan-2-ol], the melting point was 70 to 75 °C. Moreover, the IC50 in data set [1] (setting [2]) lay in the range of 50 to 250 nM.

`COc1ccc(CNc2nc(NCCCc3cccc(C4(C)OCCO4)c3)nc3ncccc23)cc1OC` [Example 28, N^4-(3,4-Dimethoxy-benzyl)-N^2-{3-[3-(2-methyl-[1,3]-dioxolan-2-yl)-phenyl]-propyl}-pyrido[2,3-d]pyrimidine-2,4-diamine]: in data set [1] (setting [2]), the IC50 was in the range of 250 to 1000 nM.

Consider `COc1cc(CNc2nc(NCCCc3ccncc3)nc3ncccc23)cc(OC)c1` [Example 31, N^4-(3,5-Dimethoxy-benzyl)-N^2-(3-pyridin-4-yl-propyl)-pyrido[2,3d]pyrimidine-2,4-diamine], for which the IC50 in data set [1] (setting [2]) was in the range of 250 to 1000 nM.

In general, melting point refers to the temperature of the solid-liquid transition.
